{
  "source": "PubChem BioAssay (NCI)",
  "experiment_in_all_cases": "DTP human tumour cell line panel, 48 h",
  "key": {"786-0 renal": {"test_system": "786-0 renal"}, "A498 renal": {"test_system": "A498 renal"}, "A549 NSCLC": {"test_system": "A549 NSCLC"}, "ACHN renal": {"test_system": "ACHN renal"}, "CAKI-1 renal": {"test_system": "CAKI-1 renal"}, "CCRF-CEM leukemia": {"test_system": "CCRF-CEM leukemia"}, "COLO 205 colon": {"test_system": "COLO 205 colon"}, "DLD-1 colon": {"test_system": "DLD-1 colon"}, "DMS 114 small cell lung": {"test_system": "DMS 114 small cell lung"}, "DMS 273 small cell lung": {"test_system": "DMS 273 small cell lung"}, "EKVX NSCLC": {"test_system": "EKVX NSCLC"}, "HCC-2998 colon": {"test_system": "HCC-2998 colon"}, "HCT-116 colon": {"test_system": "HCT-116 colon"}, "HCT-15 colon": {"test_system": "HCT-15 colon"}, "HL-60(TB) leukemia": {"test_system": "HL-60(TB) leukemia"}, "HOP-18 NSCLC": {"test_system": "HOP-18 NSCLC"}, "HOP-62 NSCLC": {"test_system": "HOP-62 NSCLC"}, "HOP-92 NSCLC": {"test_system": "HOP-92 NSCLC"}, "HT29 colon": {"test_system": "HT29 colon"}, "IGROV1 ovarian": {"test_system": "IGROV1 ovarian"}, "K-562 leukemia": {"test_system": "K-562 leukemia"}, "KM12 colon": {"test_system": "KM12 colon"}, "KM20L2 colon": {"test_system": "KM20L2 colon"}, "LOX IMVI melanoma": {"test_system": "LOX IMVI melanoma"}, "LXFL 529 NSCLC": {"test_system": "LXFL 529 NSCLC"}, "M14 melanoma": {"test_system": "M14 melanoma"}, "M19-MEL melanoma": {"test_system": "M19-MEL melanoma"}, "MALME-3M melanoma": {"test_system": "MALME-3M melanoma"}, "MOLT-4 leukemia": {"test_system": "MOLT-4 leukemia"}, "NCI-H226 lung": {"test_system": "NCI-H226 lung"}, "NCI-H23 lung": {"test_system": "NCI-H23 lung"}, "NCI-H460 lung": {"test_system": "NCI-H460 lung"}, "NCI-H522 lung": {"test_system": "NCI-H522 lung"}, "OVCAR-3 ovarian": {"test_system": "OVCAR-3 ovarian"}, "OVCAR-4 ovarian": {"test_system": "OVCAR-4 ovarian"}, "OVCAR-5 ovarian": {"test_system": "OVCAR-5 ovarian"}, "OVCAR-8 ovarian": {"test_system": "OVCAR-8 ovarian"}, "RPMI-8226 leukemia": {"test_system": "RPMI-8226 leukemia"}, "RXF 393 renal": {"test_system": "RXF 393 renal"}, "RXF-631 renal": {"test_system": "RXF-631 renal"}, "SF-268 CNS": {"test_system": "SF-268 CNS"}, "SF-295 CNS": {"test_system": "SF-295 CNS"}, "SF-539 CNS": {"test_system": "SF-539 CNS"}, "SK-MEL-2 melanoma": {"test_system": "SK-MEL-2 melanoma"}, "SK-MEL-28 melanoma": {"test_system": "SK-MEL-28 melanoma"}, "SK-MEL-5 melanoma": {"test_system": "SK-MEL-5 melanoma"}, "SK-OV-3 ovarian": {"test_system": "SK-OV-3 ovarian"}, "SN12C renal": {"test_system": "SN12C renal"}, "SNB-19 CNS": {"test_system": "SNB-19 CNS"}, "SNB-75 CNS": {"test_system": "SNB-75 CNS"}, "SNB-78 CNS": {"test_system": "SNB-78 CNS"}, "SR leukemia": {"test_system": "SR leukemia"}, "SW-620 colon": {"test_system": "SW-620 colon"}, "TK-10 renal": {"test_system": "TK-10 renal"}, "U251 CNS": {"test_system": "U251 CNS"}, "UACC-257 melanoma": {"test_system": "UACC-257 melanoma"}, "UACC-62 melanoma": {"test_system": "UACC-62 melanoma"}, "UO-31 renal": {"test_system": "UO-31 renal"}, "XF 498 CNS": {"test_system": "XF 498 CNS"}},
  "note": "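These data come from cells grown in 96-well plates and exposed to compound for 48 hours at five concentrations. At the TGI there is no net growth.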",
  "data": [
    {"smiles": "CCCCCCCCCCCCC(CC)CCCCC(=O)O", "note": "(centres undefined)", "values": [
      {"measurement": "TGI", "setting": "786-0 renal", "value": "> 100", "unit": "µM"},
      {"measurement": "TGI", "setting": "A498 renal", "value": "> 100", "unit": "µM"},
      {"measurement": "TGI", "setting": "A549 NSCLC", "value": "> 100", "unit": "µM"},
      {"measurement": "TGI", "setting": "ACHN renal", "value": "> 100", "unit": "µM"},
      {"measurement": "TGI", "setting": "CAKI-1 renal", "value": "> 100", "unit": "µM"},
      {"measurement": "TGI", "setting": "CCRF-CEM leukemia", "value": 67.6, "unit": "µM"},
      {"measurement": "TGI", "setting": "COLO 205 colon", "value": "> 100", "unit": "µM"},
      {"measurement": "TGI", "setting": "DLD-1 colon", "value": "> 100", "unit": "µM"},
      {"measurement": "TGI", "setting": "DMS 114 small cell lung", "value": "> 100", "unit": "µM"},
      {"measurement": "TGI", "setting": "DMS 273 small cell lung", "value": "> 100", "unit": "µM"},
      {"measurement": "TGI", "setting": "EKVX NSCLC", "value": "> 100", "unit": "µM"},
      {"measurement": "TGI", "setting": "HCC-2998 colon", "value": "> 100", "unit": "µM"},
      {"measurement": "TGI", "setting": "HCT-116 colon", "value": "> 100", "unit": "µM"},
      {"measurement": "TGI", "setting": "HCT-15 colon", "value": "> 100", "unit": "µM"},
      {"measurement": "TGI", "setting": "HL-60(TB) leukemia", "value": "> 90.4", "unit": "µM"},
      {"measurement": "TGI", "setting": "HOP-18 NSCLC", "value": "> 100", "unit": "µM"},
      {"measurement": "TGI", "setting": "HOP-62 NSCLC", "value": "> 100", "unit": "µM"},
      {"measurement": "TGI", "setting": "HOP-92 NSCLC", "value": "> 100", "unit": "µM"},
      {"measurement": "TGI", "setting": "HT29 colon", "value": "> 100", "unit": "µM"},
      {"measurement": "TGI", "setting": "IGROV1 ovarian", "value": "> 100", "unit": "µM"},
      {"measurement": "TGI", "setting": "K-562 leukemia", "value": "> 100", "unit": "µM"},
      {"measurement": "TGI", "setting": "KM12 colon", "value": "> 100", "unit": "µM"},
      {"measurement": "TGI", "setting": "KM20L2 colon", "value": "> 100", "unit": "µM"},
      {"measurement": "TGI", "setting": "LOX IMVI melanoma", "value": "> 100", "unit": "µM"},
      {"measurement": "TGI", "setting": "LXFL 529 NSCLC", "value": "> 100", "unit": "µM"},
      {"measurement": "TGI", "setting": "M14 melanoma", "value": "> 100", "unit": "µM"},
      {"measurement": "TGI", "setting": "M19-MEL melanoma", "value": "> 100", "unit": "µM"},
      {"measurement": "TGI", "setting": "MALME-3M melanoma", "value": "> 100", "unit": "µM"},
      {"measurement": "TGI", "setting": "MOLT-4 leukemia", "value": 69.7, "unit": "µM"},
      {"measurement": "TGI", "setting": "NCI-H226 lung", "value": "> 100", "unit": "µM"},
      {"measurement": "TGI", "setting": "NCI-H23 lung", "value": "> 100", "unit": "µM"},
      {"measurement": "TGI", "setting": "NCI-H460 lung", "value": "> 100", "unit": "µM"},
      {"measurement": "TGI", "setting": "NCI-H522 lung", "value": "> 100", "unit": "µM"},
      {"measurement": "TGI", "setting": "OVCAR-3 ovarian", "value": "> 100", "unit": "µM"},
      {"measurement": "TGI", "setting": "OVCAR-4 ovarian", "value": "> 100", "unit": "µM"},
      {"measurement": "TGI", "setting": "OVCAR-5 ovarian", "value": "> 100", "unit": "µM"},
      {"measurement": "TGI", "setting": "OVCAR-8 ovarian", "value": "> 100", "unit": "µM"},
      {"measurement": "TGI", "setting": "RPMI-8226 leukemia", "value": "> 100", "unit": "µM"},
      {"measurement": "TGI", "setting": "RXF 393 renal", "value": "> 86.8", "unit": "µM"},
      {"measurement": "TGI", "setting": "RXF-631 renal", "value": "> 100", "unit": "µM"},
      {"measurement": "TGI", "setting": "SF-268 CNS", "value": "> 100", "unit": "µM"},
      {"measurement": "TGI", "setting": "SF-295 CNS", "value": "> 100", "unit": "µM"},
      {"measurement": "TGI", "setting": "SF-539 CNS", "value": "> 59.2", "unit": "µM"},
      {"measurement": "TGI", "setting": "SK-MEL-2 melanoma", "value": "> 100", "unit": "µM"},
      {"measurement": "TGI", "setting": "SK-MEL-28 melanoma", "value": "> 100", "unit": "µM"},
      {"measurement": "TGI", "setting": "SK-MEL-5 melanoma", "value": "> 100", "unit": "µM"},
      {"measurement": "TGI", "setting": "SK-OV-3 ovarian", "value": "> 100", "unit": "µM"},
      {"measurement": "TGI", "setting": "SN12C renal", "value": "> 100", "unit": "µM"},
      {"measurement": "TGI", "setting": "SNB-19 CNS", "value": "> 100", "unit": "µM"},
      {"measurement": "TGI", "setting": "SNB-75 CNS", "value": "> 100", "unit": "µM"},
      {"measurement": "TGI", "setting": "SNB-78 CNS", "value": "> 100", "unit": "µM"},
      {"measurement": "TGI", "setting": "SR leukemia", "value": "> 100", "unit": "µM"},
      {"measurement": "TGI", "setting": "SW-620 colon", "value": "> 100", "unit": "µM"},
      {"measurement": "TGI", "setting": "TK-10 renal", "value": "> 100", "unit": "µM"},
      {"measurement": "TGI", "setting": "U251 CNS", "value": "> 67.8", "unit": "µM"},
      {"measurement": "TGI", "setting": "UACC-257 melanoma", "value": "> 100", "unit": "µM"},
      {"measurement": "TGI", "setting": "UACC-62 melanoma", "value": "> 100", "unit": "µM"},
      {"measurement": "TGI", "setting": "UO-31 renal", "value": "> 100", "unit": "µM"},
      {"measurement": "TGI", "setting": "XF 498 CNS", "value": "> 100", "unit": "µM"}
    ]}
  ]
}
